Measurements taken from publication PMC4496781, “Functional Roles of Aromatic Residues and Helices of Papiliocin in its Antimicrobial and Anti-inflammatory Activities” (Scientific Reports, 2015).

Legend:
Staphylococcus aureus = details: broth microdilution, 16 h incubation; three independent experiments in triplicate, SD 14.0%
Method: (§1) MICs of the peptides against six standard bacteria and four multidrug-resistant bacteria were determined by a broth microdilution assay as described previously. […] Cytotoxicities against mammalian cells were measured against human RBCs, mouse macrophage-derived RAW264.7 cells, and fibroblast NIH-3T3 cells. The anti-inflammatory activities of the peptides were examined by inhibiting nitrite production in LPS-stimulated RAW264.7 cells.

Bacillus subtilis = details: broth microdilution, 16 h incubation; three independent experiments in triplicate, SD 14.0%
Method: as §1

Salmonella typhimurium = details: broth microdilution, 16 h incubation; three independent experiments in triplicate, SD 14.0%
Method: as §1

Escherichia coli = details: broth microdilution, 16 h incubation; three independent experiments in triplicate, SD 14.0%
Method: as §1

Pseudomonas aeruginosa = details: broth microdilution, 16 h incubation; three independent experiments in triplicate, SD 14.0%
Method: as §1

Eenterococcus faecalis = details: broth microdilution, 16 h incubation; three independent experiments in triplicate, SD 14.0%
Method: as §1

[1] = system: LPS-stimulated RAW264.7 cells; test: Inhibition of NO (nitrite) production; assay type: cell-based, mouse; details: 10 μM peptide stated for PapN series
From the text: When released from gram-negative bacteria, LPS causes septic shock by inducing the production of pro-inflammatory cytokines and NO[33]. To examine the structural mechanism of the anti-inflammatory activity of papiliocin, we indirectly measured inhibition of NO production by the peptides in LPS-simulated RAW264.7 macrophages. […] Papiliocin was markedly more efficient than papiliocin-2A, papiliocin-5A, or papiliocin-2A5A, implying that Trp^2 and Phe^5 are important for anti-inflammatory activity.
as §1

MDRPA 2095(R) = details: broth microdilution, 16 h; unit not given
Method: (§2) We examined the antimicrobial activities of the peptides against multidrug-resistant bacterial strains, including four gram-negative species (S. typhimurium 8009(R), E. coli 1229(R), P. aeruginosa 2095(R), and A. baumannii 12035(R); Table 3).
as §1

MDRAB 12035(R) = details: broth microdilution, 16 h; unit not given
Method: as §2, §1

MDREC 1229(R) = details: broth microdilution, 16 h; unit not given
Method: as §2, §1

MDRST 8009(R) = details: broth microdilution, 16 h; unit not given
Method: as §2, §1

[2] = STD-NMR of peptides bound to LPS; assay type: binding; details: 0.5 mM peptide, 0.1 mg/mL LPS in D2O, pH 5.9, 298 K
Method: To investigate the mode of peptide interaction with LPS, we performed STD-NMR experiments.
(A) Papiliocin, (B) PapN, and (C) PapC. Spectral differences primarily constituted resonances fromn the peptide protons bound to LPS. The STD experiments were carried out using a peptide concentration of 0.5 mM in presence of 0.1 mg/mL LPS in D2O, pH 5.9 at 298 K.

[3] = Calcein leakage from zwitterionic LUVs; details: EYPC/CH 10:1 LUVs, mimic human erythrocytes
Method: Figure 5 Dose-response curves of calcein leakage from (A) egg yolk phosphatidylcholine (EYPC)/egg yolk phosphatidylglycerol (EYPG) (7:3, w:w) and (B) EYPC/cholesterol (CH) large unilamellar vesicles (LUVs; 10:1, w-w) induced by the peptides. Calcein leakage was measured 2 min after the addition of papiliocin. The lipid concentration used in the leakage experiments was 64 μM.
None of the peptides containing the N-terminal helix permeated zwitterionic vesicles (10:1 [w/w] EYPC/CH) effectively. Zwitterionic vesicles mimic the outer leaflet components of human erythrocytes.
In order to investigate the mode of action, membrane permeabilization ability was monitored using a model membrane and E.coli. Calcein leakage induced by the peptides was measured in egg yolk phosphatidylcholine (EYPC)/egg yolk phosphatidylglycerol (EYPG) (7:3, w/w) and EYPC/cholesterol (CH) large unilamellar vesicles (LUVs; 10:1, w:w) as described previously. The depolarization assay was conducted with intact E. coli bacteria (KCTC 1682) as well as E. coli spheroplasts (ATCC 25922)[51][52]. The ability of peptide to depolarize the membrane is indicated by an increase in the fluorescence of diSC3-5. […] The membrane potential dissipating activity of the peptides can be calculated as follows: […]

E. coli (KCTC 1682) = test: Time-killing kinetics; assay type: cell-based, Escherichia coli; details: even at 4× MIC, 37 °C
[4] = system: RAW264.7 macrophage cells; test: Cytotoxicity, MTT; assay type: cell-based, mouse; details: MTT, 10 μM peptide
Method: (§3) We examined the cytotoxicity against human erythrocytes. […] Next, we examined the cytotoxicity of the peptides against RAW264.7 macrophage cells. We assessed the effects of the peptides on cell growth by measuring mitochondrial reduction of MTT to a colored product in live cells. […] On the other hand, PapC produced high cytotoxicity against RAW264.7 cells, even at low concentrations. […] In case of PapN-2A, Pap-5A, and Pap-2A5A, the cell survival rates at a peptide concentration of 100 μM were approximately 90% or more. Thus, Trp^2 and Phe^5 are important for the cytotoxic activity of papiliocin toward RAW264.7 cells.
as §1

human erythrocytes = test: Hemolytic activity; assay type: cell-based
Method: as §3, §1

[5] = system: gram-negative bacteria (E. coli, S. typhimurium, P. aeruginosa)
Method: (§4) This property is assessed by the therapeutic index which can be defined as a ratio of the […] against human hRBCs to the MIC against bacterial cells.
as §1

[6] = system: gram-positive bacteria (B. subtilis, E. faecalis, S. aureus)
Method: as §4, §1

[7] = ratio MHC (μM) over GM of MIC (μM)

Substance: AVAVVGQAATVVK-NH2 [PapC]
- MIC, Staphylococcus aureus (Staphylococcus aureus): >128 µM
- MIC, Bacillus subtilis (Bacillus subtilis): >128 µM
- MIC, Salmonella typhimurium (Salmonella typhimurium): >128 µM
- MIC, Escherichia coli (Escherichia coli): 128 µM
- MIC, Pseudomonas aeruginosa (Pseudomonas aeruginosa): >128 µM
- MIC, Eenterococcus faecalis (Eenterococcus faecalis): >128 µM
- inhibition of NO production, in words [1]: does not inhibit NO production
- MIC, MDRPA 2095(R) (MDRPA 2095(R)): >128 µM
- MIC, MDRAB 12035(R) (MDRAB 12035(R)): >128 µM
- MIC, MDREC 1229(R) (MDREC 1229(R)): >128 µM
- MIC, MDRST 8009(R) (MDRST 8009(R)): >128 µM
- STD effect in presence of LPS [2]: not detected for any region
- permeabilization of zwitterionic vesicles, in words [3]: permeabilized zwitterionic vesicles effectively
- killing of E. coli within an hour (E. coli (KCTC 1682)): did not detectably kill bacteria within an hour
- survival rate of RAW264.7 cells [4]: 44.2%
- MHC (minimal peptide concentration that produces hemolysis) (human erythrocytes; human RBCs, 200 μM entered when no detectable hemolysis at 100 μM): 1.56 µM
- hemolytic activity (human erythrocytes; human erythrocytes, 6.25 μM peptide): 49%
- Therapeutic Index (MHC/GM), gram-negative [5, 7]: 0.007
- GM of the MIC values, gram-negative ([5]; three gram-negative standard strains, 256 μM used when no activity at 128 μM): 213 µM
- Therapeutic Index (MHC/GM), gram-positive [6, 7]: 0.006
- GM of the MIC values, gram-positive ([6]; three gram-positive standard strains, 256 μM used when no activity at 128 μM): 256 µM
